For orientation: IC50 means the concentration that gives 50% inhibition.

For one series, the target named is T1, hP2X3 (Homo sapiens, UniProt P56373).
T1 construct: host or cells: 1321N1 cells
T1 sequence (P56373 1-397): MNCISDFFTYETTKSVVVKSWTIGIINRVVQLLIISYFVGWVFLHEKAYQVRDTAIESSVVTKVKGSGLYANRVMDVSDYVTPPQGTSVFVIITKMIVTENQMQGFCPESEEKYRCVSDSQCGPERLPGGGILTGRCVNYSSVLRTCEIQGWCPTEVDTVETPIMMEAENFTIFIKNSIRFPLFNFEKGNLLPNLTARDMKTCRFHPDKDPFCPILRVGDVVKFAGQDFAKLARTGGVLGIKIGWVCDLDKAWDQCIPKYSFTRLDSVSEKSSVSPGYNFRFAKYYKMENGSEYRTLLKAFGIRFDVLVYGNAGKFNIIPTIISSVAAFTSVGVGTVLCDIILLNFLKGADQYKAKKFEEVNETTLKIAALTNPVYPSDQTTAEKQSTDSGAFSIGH
The series is described as follows: FLIPR calcium flux assay, antagonistic activity against hP2X3 receptor. The format is cell-based. The settings on record: 1321N1/hP2X3 cells, agonist α,β-meATP 500 nM. How it is done: (§1) The compounds were screened for antagonistic activity against hP2X3 and hP2X2/3 receptors (changes in calcium flux signals represent the effect of the compounds on ion channels) by an FLIPR assay.
(§2) 1321N1 cells (adherent cells) stably transfected with hP2X3 and hP2X2/3 receptors were digested, centrifuged, resuspended in a plating medium (DMEM+10% DFBS) and counted, adjusted to 2×10^5 cells/mL. The cells were seeded in a 384-well assay plate at 50 μL/well, and incubated in an incubator at 37° C. with 5% CO2 for 16-24 h. Test compounds (20 mM DMSO stock solution) that were 180 times the desired concentration were prepared with DMSO, and added to a 384-well compound plate at 500 nL/well. Then, each well was supplemented with 30 μL of FLIPR buffer (lx HBSS containing 1.26 mM Ca^2++2 mM CaCl2)+20 mM HEPES), and the mixture was shaken for 20-40 min to be mixed well. The agonist α,β-meATP (final concentration of 500 nM for hP2X3 cells and final concentration of 1000 nM for hP2X2/3 cells) that was 3 times the desired concentration was prepared with an FLIPR buffer, and added to another 384-well compound plate at 35 μL/well. The cell plate in which cells had been plated and cultured for 16-24 h was taken out, and the cell supernatant was removed by pipetting. 30 μL of dye (FLIPR® calcium 4 assay kit, diluted with an FLIPR buffer) was added to each well, and the plate was incubated for 1 h. 15 μL of the compound was added to each well containing cells (dosing using an FLIPR instrument), and after 15 min, 22.5 μL of agonist was added to each well and the fluorescent signal was detected (excitation wavelength: 470-495 nm, emission wavelength: 515-575 nm). With the difference between the peak and the trough of the signal taken as the basic data, the data of the highest concentration of the positive drug taken as the 100% inhibition rate, and the data of DMSO taken as the 0% inhibition rate, the inhibition effect curves of the compounds were fitted on the software Graphpad Prism 6 and IC50 values were calculated.
Background: Calcium assays in cells follow changes in intracellular calcium, usually with a dye or a luminescent sensor.
For the compound `Cc1ccc2c(c1)nc(-c1c(F)cc(N3CCCC3=O)cc1Cl)n2C[C@H]1CN(C(=O)CC(F)(F)F)CCO1` [Compound 16, (S)-1-(3-chloro-5-fluoro-4-(5-methyl-1-((4-(3,3,3-trifluoropropionyl)morpholin-2-yl)methyl)-1H-benzo[d]imidazol-2-yl)phenyl)pyrrolidin-2-one], the concentration for half-maximal inhibition (IC50) came out at 70.5 nM. For the compound `Cc1ccc2c(c1)nc(-c1c(F)cc(N3CCCC3=O)cc1Cl)n2C[C@H]1CN(C(=O)C2CC2)CCO1` [Compound 15, (S)-1-(3-chloro-4-(1-((4-(cyclopropylcarbonyl)morpholin-2-yl)methyl)-5-methyl-1H-benzo[d]imidazol-2-yl)-5-fluorophenyl)pyrrolidin-2-one], the IC50 was 85.1 nM.

`CCC(=O)N1CCO[C@@H](Cn2c(-c3c(Cl)cc4c(c3F)OCC(=O)N4)nc3cc(C)ccc32)C1` [Compound 17, (S)-6-chloro-8-fluoro-7-(5-methyl-1-((4-propionylmorpholin-2-yl)methyl)-1H-benzo[d]imidazol-2-yl)-2H-benzo[b][1,4]oxazin-3(4H)-one]: the half-maximal inhibitory concentration (IC50) stood at 45.3 nM.

`CC(=O)N1CCO[C@@H](Cn2c(-c3c(F)cc(N4CCCC4=O)cc3F)nc3cc(Cl)cc(F)c32)C1` [Compound 13, (S)-1-(4-(1-((4-acetylmorpholin-2-yl)methyl)-5-chloro-7-fluoro-1H-benzo[d]imidazol-2-yl)-3,5-difluorophenyl)pyrrolidin-2-one]: the IC50 amounted to 766 nM. Turning to `CNC(=O)c1cc(F)c(-c2nc3cc(C)cnc3n2C[C@H]2CN(C(=O)OC)CCO2)c(F)c1` [Compound 6, Methyl (S)-2-((2-(2,6-difluoro-4-(methylcarbamoyl)phenyl)-6-methyl-3H-imidazo[4,5-b]pyridin-3-yl)methyl)morpholine-4-carboxylate], the IC50 is greater than 10000 nM. Regarding `CC(=O)N1CCO[C@@H](Cn2c(-c3c(F)cc(N4CCCC4=O)cc3F)nc3cc(C(F)F)ccc32)C1` [Compound 5, (S)-1-(4-(1-((4-acetylmorpholin-2-yl)methyl)-5-(difluoromethyl)-1H-benzo[d]imidazol-2-yl)-3,5-difluorophenyl)pyrrolidin-2-one], the IC50 was 100 nM. As to `CC(=O)N1CCO[C@@H](Cn2c(-c3c(F)cc(N4CCCC4=O)cc3Cl)nc3cc(Cl)c(F)cc32)C1` [Compound 12, (S)-1-(4-(1-((4-acetylmorpholin-2-yl)methyl)-5-chloro-6-fluoro-1H-benzo[d]imidazol-2-yl)-3-chloro-5-fluorophenyl)pyrrolidin-2-one], the IC50 is 87.7 nM.

Regarding `CNC(=O)c1cc(F)c(-c2nc3cc(C)ncc3n2C[C@H]2CN(C(=O)OC)CCO2)c(F)c1` [Compound 8, Methyl (S)-2-((2-(2,6-difluoro-4-(methylcarbamoyl)phenyl)-6-methyl-3H-imidazo[4,5-c]pyridin-3-yl)methyl)morpholine-4-carboxylate], the 50% inhibitory concentration (IC50) was greater than 10000 nM. In the case of `CC(=O)N1CCO[C@@H](Cn2c(-c3c(F)cc(N4CCCC4=O)cc3Cl)nc3cc(C)c(F)cc32)C1` [Compound 11, (S)-1-(4-(1-((4-acetylmorpholin-2-yl)methyl)-6-fluoro-5-methyl-1H-benzo[d]imidazol-2-yl)-3-chloro-5-fluorophenyl)pyrrolidin-2-one], the IC50 is 79.4 nM.

`CNC(=O)c1cc(F)c(-c2nc3nc(C)ccc3n2C[C@H]2CN(C(=O)OC)CCO2)c(F)c1` [Compound 7, Methyl (S)-2-((2-(2,6-difluoro-4-(methylcarbamoyl)phenyl)-5-methyl-1H-imidazo[4,5-b]pyridin-1-yl)methyl)morpholine-4-carboxylate]: the IC50 was found to be 5840 nM.

Tested on in another series: not listed separately
The experiment in a line: In vitro metabolic stability in human hepatocytes. The settings on record: human hepatocytes 1×10^6 cells/mL, 37° C., up to 120 min; read-out: Intrinsic clearance (uL/min/10^6 cells). The format is in vitro ADME. The protocol:
The concentrations of the test compounds in the reaction system were determined by LC/MS/MS, so that the intrinsic clearance of the test compounds was calculated, and the in vitro metabolic stability in human hepatocytes was evaluated.
247.5 μL of a mixed solution of human hepatocytes at 1×10^6 cells/mL (purchased from BioreclamationIVT, Cat. No. S01205) and 2.5 μL of 100 μM test compound or positive control was added to a plate to initiate the reaction. The plate was incubated at 37° C. and 600 rpm. 20 μL of incubation system was transferred to a stop plate at 0.5 min, 5 min, 15 min, 30 min, 45 min, 60 min, 80 min, 100 min and 120 min. Then, the mixture was vortexed for 2 min to be mixed well. The stop plate was centrifuged at 4000 rpm for 20 min. 40 μL of supernatant of each compound was transferred to a 96-well sample template, after which 160 μL of pure water was added to dilute the samples.
The resulting samples were quantified from ion chromatogram. The residual rate was calculated from the peak area of the test compound or the positive control. Slope k was determined by linear regression of the […] of residual rates versus incubation time using Microsoft Excel.
Intrinsic clearance (in vitro CLint, μL/min/10^6 cells) was calculated from the slope value according to the following equation:
V=incubation volume (0.25 mL);
N=number of cells per well (0.25×10^6 cells)
On to `CCC(=O)N1CCO[C@@H](Cn2c(-c3c(Cl)cc4c(c3F)OCC(=O)N4)nc3cc(C)ccc32)C1` [Compound 17, (S)-6-chloro-8-fluoro-7-(5-methyl-1-((4-propionylmorpholin-2-yl)methyl)-1H-benzo[d]imidazol-2-yl)-2H-benzo[b][1,4]oxazin-3(4H)-one], for which the hepatocyte CLint at 1 μM was determined as 4.1 µL/min/1e6 cells.

For another series, the target named is T2, hP2X2/3 (Homo sapiens, UniProt P56373+Q9UBL9).
T2 construct: host or cells: 1321N1 cells
T2 sequence (Q9UBL9 1-471): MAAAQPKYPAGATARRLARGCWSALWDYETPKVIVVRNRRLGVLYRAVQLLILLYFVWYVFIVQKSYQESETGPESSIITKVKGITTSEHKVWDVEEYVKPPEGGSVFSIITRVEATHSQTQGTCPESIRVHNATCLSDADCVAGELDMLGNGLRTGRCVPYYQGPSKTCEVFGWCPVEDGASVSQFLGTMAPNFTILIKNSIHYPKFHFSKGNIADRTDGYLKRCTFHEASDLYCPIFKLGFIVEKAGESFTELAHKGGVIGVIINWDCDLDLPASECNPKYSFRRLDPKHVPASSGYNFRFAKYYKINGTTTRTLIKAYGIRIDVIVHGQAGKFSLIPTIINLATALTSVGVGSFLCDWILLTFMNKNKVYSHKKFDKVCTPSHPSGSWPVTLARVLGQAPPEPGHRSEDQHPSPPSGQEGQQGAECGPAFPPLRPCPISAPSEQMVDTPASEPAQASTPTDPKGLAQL
T2 sequence (P56373 1-397): T1 sequence (P56373 1-397)
The series is described as follows: FLIPR calcium flux assay, antagonistic activity against hP2X2/3 receptor. It counts as cell-based. The settings on record: 1321N1/hP2X2/3 cells, agonist α,β-meATP 1000 nM. How it is done:
as §1, §2
Turning to `CCC(=O)N1CCO[C@@H](Cn2c(-c3c(Cl)cc4c(c3F)OCC(=O)N4)nc3cc(C)ccc32)C1` [Compound 17, (S)-6-chloro-8-fluoro-7-(5-methyl-1-((4-propionylmorpholin-2-yl)methyl)-1H-benzo[d]imidazol-2-yl)-2H-benzo[b][1,4]oxazin-3(4H)-one], the half-inhibitory concentration (IC50) amounted to 3500 nM.

(Values after patent publication US20230250095A1, “BENZIMIDAZOLE DERIVATIVES, PREPARATION METHOD THEREFOR AND MEDICAL USE THEREOF” (TUOJIE BIOTECH(SHANGHAI) CO., LTD., priority 2020, published 2023).)
